Structures can show the parent of a compound that is named as a salt.
System: MTT (mouse pheochromocytoma)
Test: IC50 of cell viability (ATP content)
Conditions: (24 or 48 h)
How it was run: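 MTT mouse pheochromocytoma cells, cultured overnight at 37°C, 5% CO2 in DMEM with 5% FBS and 1% horse serum, were exposed in white 1536-well plates to library compounds in DMSO at final 0.5 nM to 46 µM (8 concentrations) for 24 or 48 hrs. CellTiter-Glo luminescence was normalised to positive-control (100%) and DMSO (0%) wells. A four-parameter logistic fit gave the IC50.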

IC50 of cell viability [µM]	SMILES
> 46	COC(=O)[C@H](Cc1ccccc1)NC(=O)[C@@H](N)CC(=O)O [Aspartame]
> 46	O=C(Nc1ccc([S+](=O)([O-])N2CCOCC2)cc1)c1cc(Cl)ccc1N[S+](=O)([O-])c1ccc(Cl)s1 [Ataciguat]
> 46	COC(=O)N[C@H](C(=O)N[C@@H](Cc1ccccc1)[C@@H](O)CN(Cc1ccc(-c2ccccn2)cc1)NC(=O)[C@@H](NC(=O)OC)C(C)(C)C)C(C)(C)C [Atazanavir]
> 46	CCOc1ccc(C[C@H]2NC(=O)CCSSC[C@@H](C(=O)N3CCC[C@H]3C(=O)N[C@@H](CCCN)C(=O)NCC(N)=O)NC(=O)[C@H](CC(N)=O)NC(=O)[C@H]([C@@H](C)O)NC(=O)[C@H]([C@@H](C)CC)NC2=O)cc1 [Atosiban]
> 46	O\C1=C(/C2CCC(CC2)C3=CC=C(Cl)C=C3)C(=O)C4=C(C=CC=C4)C1=O (stereo not given) [Atovaquone]
> 46	COc1ccc(C[C@@H]2c3cc(OC)c(OC)cc3CC[N@@+]2(C)CCC(=O)OCCCCCOC(=O)CC[N@+]2(C)CCc3cc(OC)c(OC)cc3[C@H]2Cc2ccc(OC)c(OC)c2)cc1OC.O=S(=O)([O-])c1ccccc1.O=S(=O)([O-])c1ccccc1 [Atracurium besylate]
> 46	O=C(CCCN1CCN2CCCC2C1)c1ccc(F)cc1 (stereo not given) [Azabuperona]
> 46	O=C(CCN1CCN2CCCC2C1)N1c2ccccc2Sc2ccc(Cl)cc21 (stereo not given) [Azaclorzina]
> 46	O=C(CCCN1CCN(c2ccccn2)CC1)c1ccc(F)cc1 [Azaperone]
> 46	CCC[C@@H]1C(=O)N2N(C1=O)\C(=N/C3=C2C=C(C)C=C3)N(C)C [Azapropazone]
> 46	CC(=O)OC[C@H]1O[C@H]([C@H](OC(C)=O)[C@@H]1OC(C)=O)N2\N=C/C(=O)NC2=O [Azaribine]
> 46	CC[C@H]1OC(=O)[C@H](C)[C@@H](O[C@H]2C[C@@](C)(OC)[C@@H](O)[C@H](C)O2)[C@H](C)[C@@H](O[C@@H]2O[C@H](C)C[C@H](N(C)C)[C@H]2O)[C@](C)(O)C[C@@H](C)CN(C)[C@H](C)[C@@H](O)[C@]1(C)O [Azithromycin]
> 46	[Na+].CC1(C)S[C@H]2[C@H](NC(=O)[C@@H](NC(=O)N3CCNC3=O)C4=CC=CC=C4)C(=O)[N@]2[C@H]1C([O-])=O [Azlocillin sodium salt]
> 46	C[C@H]1[C@H](NC(=O)/C(=N/OC(C)(C)C(=O)O)c2csc(N)n2)C(=O)N1[S+](=O)([O-])O [Aztreonam]
> 46	CNC1CCCN(c2c(F)cc3c(=O)c(C(=O)O)cn(C4CC4)c3c2OC)C1 (stereo not given) [BALOFLOXACIN HYDRATE]
> 46	O=C(O)CCNC(=O)c1ccc(/N=N/c2ccc(O)c(C(=O)O)c2)cc1 [BALSALAZIDE DISODIUM]
> 46	CC(=O)Nc1ccc(OC(=O)c2ccccc2OC(C)=O)cc1 [BENORILATE]
> 46	O=C(O)CNC(=O)CNC(=O)CNC(=O)CSC(=O)c1ccccc1 [BENZOYLMERCAPTOACETYLGLYCYLGLYCYLGLYCINE (Betiatide)]
> 46	CC(C)COCC(CN(Cc1ccccc1)c1ccccc1)N1CCCC1 (stereo not given) [BEPRIDIL]
> 46	CC#CC[C@@H](C)[C@@H](O)/C=C/[C@H]1[C@H]2c3cccc(CCCC(=O)[O-])c3O[C@H]2C[C@@H]1O [BERAPROST SODIUM]
> 46	CC(C)NCC(O)COc1ccc(CCOCC2CC2)cc1 (stereo not given) [BETAXOLOL]
> 46	C=C(c1ccc(C(=O)O)cc1)c1cc2c(cc1C)C(C)(C)CCC2(C)C [BEXAROTENE]
> 46	CN1CCC(Nc2ncc3ncnc(Nc4ccc(F)c(Cl)c4)c3n2)CC1 [BIBX 1382 dihydrochloride]
> 46	O=C(O)Cc1cccc(-c2cc(CCCCCCc3ccc(O[C@H]4O[C@H](CO)[C@@H](O)[C@H](O)[C@@H]4O)c(-c4cccc(CC(=O)O)c4)c3)ccc2O[C@H]2O[C@H](CO)[C@@H](O)[C@H](O)[C@@H]2O)c1 [BIMOSIAMOSE DISODIUM]
> 46	CCN1CCN(c2cc(-c3ccc(F)cc3)c3c(n2)CCCCCC3)CC1 [BLONANSERIN]
> 46	Cc1cc2c(OCC(CNC(C)(C)C)OC(=O)c3ccccc3)cccc2[nH]1 (stereo not given) [BOPINDOLOL]
> 46	COc1ccccc1Oc1c(N[S+](=O)([O-])c2ccc(C(C)(C)C)cc2)nc(-c2ncccn2)nc1OCCO [BOSENTAN]
> 46	CCN(CC)CCNC(=O)c1cc(Br)c(N)cc1OC [BROMOPRIDE]

More lines, now with the values behind:

SMILES	IC50 of cell viability [µM]
CN1C[C@@H]2c3ccccc3Oc3ccc(Cl)cc3[C@H]2C1 [Asenapine]	> 46
CCC1(c2cnc[nH]2)Cc2ccccc2C1 [Atipamezole Hydrochloride]	> 46
CCC1(c2cnc[nH]2)Cc2ccccc2C1 [Atipamezole]	> 46
C[N@+]1([O-])[C@H]2CC[C@H]1C[C@H](OC(=O)[C@@H](CO)c1ccccc1)C2 [Atropine oxide]	> 46
C[N@+]1([O-])[C@@H]2CC[C@@H]1C[C@@H](OC(=O)[C@@H](CO)c1ccccc1)C2 [Atropine-N-oxide hydrochloride]	> 46
CN1[C@@H]2CC[C@H]1CC(OC(=O)C(CO)c1ccccc1)C2 (stereo not given in full) [Atropine]	> 46
CNC(=O)c1ccccc1Sc1ccc2c(/C=C/c3ccccn3)n[nH]c2c1 [Axitinib]	> 46
Clc1ccc(C2(Cn3cncn3)OCCO2)c(Cl)c1 [Azaconazole]	> 46
OC(c1ccccc1)(c1ccccc1)C1CCNCC1 [Azacyclonol]	> 46
CN1CC\C(CC1)=C2/C3=CC=CC=C3CCC4=CC=CN=C24 [Azatadine]	> 46
Cn1cnc([N+](=O)[O-])c1Sc1ncnc2nc[nH]c12 [Azathioprine]	> 46
[O-]/[N+](=N/c1ccccc1)c1ccccc1 [Azoxybenzene]	> 46
CO/C=C(/C(=O)OC)c1ccccc1Oc1cc(Oc2ccccc2C#N)ncn1 [Azoxystrobin]	> 46
C=CCN1CCc2nc(N)sc2CC1 [B-HT 920]	> 46
CCN1CCc2nc(N)oc2CC1.Cl.Cl [B-HT 933 dihydrochloride]	> 46
NCC(CC(=O)O)c1ccc(Cl)cc1 (stereo not given) [BACLOFEN]	> 46
CCCCCCCCCCCCCCCCCCOCC(O)CO (stereo not given) [BATYL ALCOHOL]	> 46
NCC1O[C@@H](O[C@@H]2C(O)[C@H](O[C@H]3OC(CO)C(O)C(N)C3O)[C@@H](N)C[C@H]2N)C(N)C(O)C1O.O=[S+]([O-])(O)O (stereo not given in full) [BEKANAMYCIN SULFATE]	> 46
CCN(CC)CCOC(=O)C(O)(c1ccccc1)c1ccccc1 [BENACTYZINUM]	> 46
Cn1c(CCCC(=O)O)nc2cc(N(CCCl)CCCl)ccc21 [BENDAMUSTINUM]	> 46
O=C([O-])COc1nn(Cc2ccccc2)c2ccccc12 [BENDAZAC]	> 46

SMILES	IC50 of cell viability [µM]
CC(Cc1cccc(C(F)(F)F)c1)NCCOC(=O)c1ccccc1.Cl (stereo not given) [BENFLUOREX HYDROCHLORIDE]	> 46
CCCCCCCCCCCCCC[N+](C)(C)Cc1ccccc1.O.[Cl-] [BENZALKONIUM CHLORIDE]	> 46
CN1C2CCC1C(C(=O)O)C(OC(=O)c1ccccc1)C2 (stereo not given) [BENZOYLECGONINE]	> 46
CN1C2CCC1CC(OC(c1ccccc1)c1ccccc1)C2.O=[S+]([O-])(O)O (stereo not given) [BENZTROPINE]	> 46
O=C(/C=C/c1ccccc1)OCc1ccccc1 [BENZYL CINNAMATE]	> 46
O=C(OCc1ccccc1)c1cccnc1 [BENZYL NICOTINATE]	> 46
C[N+](C)(C)CC(=O)[O-].Cl [BETAINE HYDROCHLORIDE]	> 46
O=C(O)CCNC(=O)c1ccccc1 [BETAMIPRON]	> 46
CCC(=O)OC1(c2ccccc2)CCN(C)CC1C (stereo not given) [BETAPRODINUM]	> 46
C[N+]1(C)CCCCC1COC(=O)C(O)(c1ccccc1)c1ccccc1 (stereo not given) [BEVONIUM METHYLSULFATE]	> 46
c1ccc(-c2ccc(C(c3ccccc3)n3ccnc3)cc2)cc1 (stereo not given) [BIFONAZOLE]	> 46
CC(C)=CC1C(C(=O)OCc2coc(Cc3ccccc3)c2)C1(C)C (stereo not given) [BIORESMETHRINUM]	> 46
CC(C)=CCC[C@](C)(O)C1CC\C(=C/C1)C (stereo not given in full) [BISABOLOL]	> 46
[O]=[Bi][O][Bi]=[O] [BISMUTH OXIDE]	> 46
CC(C)(C)CC(C)(C)c1cc(Cc2cc(C(C)(C)CC(C)(C)C)cc(-n3nc4ccccc4n3)c2O)c(O)c(-n2nc3ccccc3n2)c1 [BISOCTRIZOLE]	> 46
O=C1Oc2ccccc2C(=O)C1C(CC(O)c1ccc(-c2ccc(Br)cc2)cc1)c1ccccc1 (stereo not given) [BOLDO]	> 46
CC1(C)C2CC[C@]1(C)[C@@H](O)C2 [BORNEOL]	> 46
CC(=O)OC1CC2CCC1(C)C2(C)C (stereo not given) [BORNYL ACETATE]	> 46
Nc1c(CC(=O)[O-])cccc1C(=O)c1ccc(Br)cc1 [BROMFENAC SODIUM]	> 46
CN(Cc1cc(Br)cc(Br)c1N)C1CCCCC1.Cl [BROMHEXINE HYDROCHLORIDE]	> 46
Nc1nc(O)c(Br)c(-c2ccccc2)n1 [BROPIRIMINE]	> 46

From the supplement of paper PMC3974653
